Read-outs that look alike come from different tables or passages of the source. Marks after values point to notes of the source that are not given here.
Assays:
[1] = tested on: rat primary cortical cultures; assay: MEA recordings of spontaneous neuronal network activity; assay type: cell-based; conditions: for IC50: value [CI]
Description: Rat pups born of timed-pregnant Wistar rats (Envigo, Horst, Netherlands) were sacrificed on postnatal day 0–1 to prepare cortical cultures grown on MEA plates as described previously ([Zwartsen et al., 2018], [2019]). Briefly, a 50 μL drop of cell suspension was added to each well (1 × 10^5 cells/well) of a 48-well MEA plate (Axion BioSystems Inc., Atlanta, GA, United States, M768-GL1-30Pt200) coated with 0.1% polyethyleneimine (PEI). After 2 h, 450 μL dissection medium was added to each well. The day after the isolation (day in vitro 1; DIV1), 450 μL/well dissection medium was replaced with 450 μL/well glutamate medium. At DIV4, 450 μL/well glutamate medium was replaced with 450 μL/well FBS medium (for medium supplements see [Zwartsen et al., 2018], [2019]). Cultures were kept in FBS medium at 37°C, 5% CO2/95% air atmosphere until use at DIV9-10.
Microelectrode array recordings were performed as described in [Zwartsen et al. (2019)]. In short, neuronal activity was measured using a Maestro 768-channel amplifier (Axion BioSystems Inc., Atlanta, GA, United States). Baseline spontaneous neuronal activity was recorded for 30 min at 37°C, after which wells were exposed to selected synthetic cathinones under sterile conditions. Next, neuronal activity was determined during a 30 min “acute exposure” recording. […] Next, exposure medium was replaced with fresh FBS medium and the plate was incubated for 19 h at 37°C, until the 30 min “washout” recording, i.e., 24 h after the start of the exposure.
Effects of 3-MMC, 4-MMC, 4-MEC, pentedrone, 3-MMCinternet, and 4-MECinternet were tested at 1–1000 μM (final concentration). At the day of exposure, stocks and dilutions were freshly made in NB-A FBS medium (for medium supplements see [Zwartsen et al., 2019]). Data on methylone, α-PVP, and MDPV exposure have been published previously in [Zwartsen et al. (2019)]. For each experimental condition, primary cultures from two to three different isolations were used and tested in four to five plates (Nplates). The number of wells (nwells) represents the number of replicates per condition.
Microelectrode array data were analyzed as described in [Zwartsen et al. (2019)]. In short, parameters of interest after acute exposure were expressed as a percentage of the parameters prior to exposure to obtain a treatment ratio for each well (paired comparison; parameterexposure/parameterbaseline as % of control wells). The parameters after prolonged exposure and washout were also expressed as a percentage of the baseline parameters. Next, treatment ratios were grouped per parameter, condition, drug [e.g., mean spike rate (MSR) 10 μM 3-MMC] and exposure scenario (acute, prolonged, or washout).
Outliers (>mean ± 2×SD) for MSR (5.0%) were used to exclude wells on all parameters. Outliers for mean burst rate (MBR; 2.6%) and mean network burst rate (MNBR; 1.4%) were used to exclude wells on specific parameters (burst, network burst, and synchronicity parameters, or network burst and synchronicity parameters, respectively). Finally, the acute, prolonged, and washout control treatment ratios were set to 100% and treatment ratios of exposed wells were normalized to the average treatment ratio of medium control wells of the corresponding parameter and exposure scenario. Treatment ratios of exposed wells were averaged per parameter (e.g., MSR), condition (e.g., 100 μM), drug (e.g., methylone), and exposure scenario (e.g., acute exposure) and used for further statistical analyses [see [Zwartsen et al. (2019)] for more details on criteria, parameters, and exposure scenarios]. Neuronal activity (as % of control) is expressed as mean ± SEM of nwells from Nplates. As the spike, burst, and network burst rates were among the most sensitive parameters, these parameters are presented in the manuscript. Additional parameters are presented in Supplementary Figure 2.
Concentration–response curves were made for transporter, MEA, and cell viability assays. […]

hDAT [2] = biological target: T1, hDAT (Homo sapiens, UniProt Q01959); assay: Monoamine uptake assay (fluorescent substrate), hDAT; assay type: cell-based
T1 construct: expressed in transfected cells
Description: (§1) Human embryonic kidney (HEK) 293 cells stably expressing human DAT, NET, or SERT (kindly provided by Dr. Hoener from F. Hoffmann-La Roche Ltd., Basel, Switzerland) were cultured as described in [Zwartsen et al. (2017)].
(§2) Uptake activity of hNET, hDAT, and hSERT was measured using the Neurotransmitter Transporter Uptake Assay Kit from MDS Analytical Technologies (Sunnyvale, CA, United States) as described in detail previously ([Zwartsen et al., 2017]). The kit contained a mixture consisting of a fluorescent substrate, which resembles the biogenic amine neurotransmitters, and a masking dye that extinguishes extracellular fluorescence. Uptake of the fluorescent substrate, a measure of neurotransmitter transporter function, increases intracellular fluorescence, while extracellular fluorescence is blocked by the masking dye ([Jorgensen et al., 2008]). The mixture was dissolved in Hank’s Balanced Salt Solution (1×) (HBSS) with 20 mM HEPES, and kept up to 1 week at −20°C.
On day 0, HEK 293 cells were seeded (60,000 cells/well) in clear-bottom black-walled 96-well plates coated with poly-L-lysine (PLL, 50 mg/L). On day 1, cells were pre-incubated with the fluorescent substrate mixture (95 μL/well, comprising of the fluorescent substrate and the extracellular masking dye, dissolved in HBSS) for 12 min (t = −12 to t = 0). During incubation, intracellular fluorescence was measured every 3 min. […] Stock solutions and dilutions were freshly prepared in HBSS (1×) at the day of usage. Effects of 3-MMC, 4-MMC, 4-MEC, methylone, pentedrone, MDPV, 3-MMCinternet, and 4-MECinternet were measured at final concentrations of 0.03–300/1000 μM. Fluorescence was measured with a microplate reader (Tecan Infinite M200 microplate; Tecan Trading Männedorf, Switzerland) at 37°C at 430/515 nm excitation/emission wavelength. For more experimental detail see [Zwartsen et al. (2017)].
Data from the monoamine uptake assay were analyzed as described by [Zwartsen et al. (2017)], with minor modifications. Data for α-PVP were reanalyzed from [Zwartsen et al. (2017)]. In short, the fluorescence of each well was background corrected and uptake was determined per well by calculating the change in fluorescence (ΔFU) at 12 min after drug exposure (t = 12) compared to the fluorescence at the start of exposure (t = 0), as a percentage of the fluorescence at the start of exposure (%ΔFU = ((FUt = 12−FUt = 0)/FUt = 0)∗100%; see [Zwartsen et al., 2017]). Plate-matched control values for each compound (e.g., methylone) above or below two times the standard deviation of the average normalized control value were considered outliers and were removed from analysis (4.8%). Thereafter, uptake in drug-exposed wells was expressed as a percentage of control wells on the same plate and all uptake values were scaled between 0 and 100%. Outliers (>mean ± 2×SD) in exposed groups were removed (2.7%) and uptake (% compared to control) was expressed as mean ± SEM of nwells from Nplates.
Concentration–response curves were made for transporter, MEA, and cell viability assays. To calculate IC50 values, a four-parameter logistic curve with a variable slope was used (Y = Bottom + (Top−Bottom)/(1 + 10∧((LogIC50 − X) ^∗ HillSlo pe))) (GraphPad Prism, version 7.04). When applicable, significance between concentrations and controls (for MEA) and different IC50 values [between different transporters (DAT/NET/SERT), MEA parameters (MSR/MBR/MNBR), exposure settings (acute/prolonged/recovery), and drug grade (pharmaceutical/internet)] were determined using unpaired t-tests (two values) or one-way ANOVA’s followed by a post hoc Dunnet’s test (>2 values). All statistical tests were performed using GraphPad Prism. For recovery of neuronal activity, IC50 values and 95% confidence intervals could not always be determined and are reported as higher than the highest concentration tested (e.g., >1000 μM). […]

hSERT = biological target: T2, hSERT (Homo sapiens, UniProt P31645); conditions: cited from earlier work
T2 construct: expressed in transfected cells

hNET = biological target: T3, hNET (Homo sapiens, UniProt P23975); assay: Monoamine uptake assay (fluorescent substrate), hNET; assay type: cell-based
T3 construct: expressed in transfected cells
Description: as §1
as §2, with “The mixture was dissolved in Hank’s Balanced Salt Solution (1×) (HBSS) with 20 mM HEPES, and kept up to 1 week at −20°C.” left out
On day 0, HEK 293 cells were seeded (60,000 cells/well) in clear-bottom black-walled 96-well plates coated with poly-L-lysine (PLL, 50 mg/L). […] During incubation, intracellular fluorescence was measured every 3 min. […] Effects of 3-MMC, 4-MMC, 4-MEC, methylone, pentedrone, MDPV, 3-MMCinternet, and 4-MECinternet were measured at final concentrations of 0.03–300/1000 μM. Fluorescence was measured with a microplate reader (Tecan Infinite M200 microplate; Tecan Trading Männedorf, Switzerland) at 37°C at 430/515 nm excitation/emission wavelength. […]

[3] = Brain partitioning factor (BPF); conditions: brain concentration divided by blood/serum/plasma concentration from human post mortem reports or animal studies (rat/mice)
From the text: (§3) To correlate reported effect concentrations to expected concentrations in the human brain during recreational use a brain partitioning factor (BPF; […]) was applied, as actual human brain concentrations following recreational drug use are unknown. Expected concentrations in the human brain were estimated by multiplying recreational human blood/serum/plasma concentrations with the BPF. Human recreational blood, serum, or plasma levels were obtained from literature (driving under the influence or accidental non-fatal intoxications). The BPF was determined for each drug by dividing the brain concentration by the blood/serum/plasma concentration found in human post mortem reports, or animal studies (rat/mice) when human data were insufficient.

[4] = Estimated human brain concentrations and comparison with IC50 values; conditions: recreational human blood/serum/plasma concentration multiplied with BPF
From the text: as §3
To identify the relevance of effects and potentially harmful drugs, effect concentrations (IC50 values) were related to the estimated human brain concentration during recreational use [(brain), Table 2]. By comparing these concentrations, the most relevant neurotoxic mechanisms of cathinones can be identified. […] Only 4-MEC and MDPV inhibited neuronal activity during acute exposure at concentrations within (MDPV) or close to (4-MEC) the estimated brain concentration.

[5] = tested on: rat primary cortical cultures; set-up: method as in Zwartsen et al., 2019; conditions: 2019, cited from earlier work; for IC50: value [CI], published previously ref Zwartsen et al.
[6] = recreational use (driving under the influence or accidental non-fatal intoxications); ref literature; cited from earlier work
hDAT [7] = biological target: T1, hDAT; set-up: method as in Zwartsen et al., 2017; conditions: read-out: Transporter inhibition IC50, hDAT; HEK 293 cells; value [CI]; reanalyzed from previously published data ref Zwartsen et al., 2017; cited from earlier work
[8] = 19 h washout, 24 h after start of exposure, read-out: Neuronal activity IC50, mean burst rate (MBR), recovery
[9] = 19 h washout, 24 h after start of exposure, read-out: Neuronal activity IC50, mean network burst rate (MNBR), recovery
[10] = acute exposure 30 min, read-out: Neuronal activity IC50, mean network burst rate (MNBR), acute
[11] = acute exposure 30 min, read-out: Neuronal activity IC50, mean burst rate (MBR), acute
[12] = acute exposure 30 min, read-out: Neuronal activity IC50, mean spike rate (MSR), acute
[13] = washout, 24 h after start of exposure, read-out: Neuronal activity IC50, mean burst rate (MBR), recovery
[14] = washout, 24 h after start of exposure, read-out: Neuronal activity IC50, mean network burst rate (MNBR), recovery
[15] = washout, 24 h after start of exposure, read-out: Neuronal activity IC50, mean spike rate (MSR), recovery

T1 sequence (Q01959 whole entry): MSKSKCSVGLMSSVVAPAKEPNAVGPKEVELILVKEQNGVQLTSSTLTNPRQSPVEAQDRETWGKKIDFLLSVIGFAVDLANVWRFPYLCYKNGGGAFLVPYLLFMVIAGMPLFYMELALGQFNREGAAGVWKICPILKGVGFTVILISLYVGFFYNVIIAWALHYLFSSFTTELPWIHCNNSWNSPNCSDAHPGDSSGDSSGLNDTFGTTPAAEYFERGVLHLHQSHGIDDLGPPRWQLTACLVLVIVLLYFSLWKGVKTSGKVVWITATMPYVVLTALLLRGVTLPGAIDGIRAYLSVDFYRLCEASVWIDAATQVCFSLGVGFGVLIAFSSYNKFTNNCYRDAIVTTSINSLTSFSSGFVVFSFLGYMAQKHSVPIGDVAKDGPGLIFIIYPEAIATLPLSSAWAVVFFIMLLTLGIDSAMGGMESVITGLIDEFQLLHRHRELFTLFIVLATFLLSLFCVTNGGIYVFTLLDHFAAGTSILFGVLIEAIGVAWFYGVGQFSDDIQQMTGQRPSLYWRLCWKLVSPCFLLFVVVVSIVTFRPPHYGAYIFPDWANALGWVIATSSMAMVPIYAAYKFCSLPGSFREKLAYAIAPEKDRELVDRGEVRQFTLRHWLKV
T3 sequence (P23975 whole entry): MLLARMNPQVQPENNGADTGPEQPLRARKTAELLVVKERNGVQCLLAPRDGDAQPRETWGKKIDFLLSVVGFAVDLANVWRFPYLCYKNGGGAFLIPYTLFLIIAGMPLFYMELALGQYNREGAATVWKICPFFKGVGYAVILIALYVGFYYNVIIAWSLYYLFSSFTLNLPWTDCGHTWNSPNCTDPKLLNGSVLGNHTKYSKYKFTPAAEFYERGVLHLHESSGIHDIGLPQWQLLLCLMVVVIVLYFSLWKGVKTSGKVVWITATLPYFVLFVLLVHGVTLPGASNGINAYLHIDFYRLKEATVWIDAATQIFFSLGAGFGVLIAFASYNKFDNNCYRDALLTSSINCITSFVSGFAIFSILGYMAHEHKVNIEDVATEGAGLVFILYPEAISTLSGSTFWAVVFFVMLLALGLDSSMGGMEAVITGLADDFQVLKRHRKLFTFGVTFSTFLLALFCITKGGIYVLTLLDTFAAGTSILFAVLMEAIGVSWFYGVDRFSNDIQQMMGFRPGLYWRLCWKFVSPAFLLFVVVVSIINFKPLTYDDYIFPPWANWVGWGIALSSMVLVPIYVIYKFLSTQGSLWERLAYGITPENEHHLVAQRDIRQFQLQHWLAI
T2 sequence (P31645 whole entry): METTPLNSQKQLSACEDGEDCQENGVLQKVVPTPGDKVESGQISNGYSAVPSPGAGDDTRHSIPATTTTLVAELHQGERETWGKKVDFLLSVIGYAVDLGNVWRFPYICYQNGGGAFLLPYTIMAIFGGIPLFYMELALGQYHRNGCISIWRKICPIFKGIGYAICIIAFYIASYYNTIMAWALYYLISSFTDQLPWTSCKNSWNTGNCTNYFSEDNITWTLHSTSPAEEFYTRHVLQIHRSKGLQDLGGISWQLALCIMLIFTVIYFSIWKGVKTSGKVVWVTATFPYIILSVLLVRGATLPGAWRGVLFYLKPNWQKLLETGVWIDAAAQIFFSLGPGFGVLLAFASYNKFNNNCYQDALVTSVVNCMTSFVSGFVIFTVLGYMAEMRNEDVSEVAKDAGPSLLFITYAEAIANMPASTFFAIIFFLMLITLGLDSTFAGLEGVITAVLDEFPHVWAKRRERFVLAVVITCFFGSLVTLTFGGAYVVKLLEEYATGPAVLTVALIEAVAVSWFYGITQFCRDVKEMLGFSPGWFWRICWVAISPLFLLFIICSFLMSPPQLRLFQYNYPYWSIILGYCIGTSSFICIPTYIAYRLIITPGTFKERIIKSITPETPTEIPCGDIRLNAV

Structure (SMILES) | IC50 [1, 8] | IC50 [1, 9] | IC50 [1, 10] | Brain partitioning factor (BPF) [3] | Estimated human (brain) concentration [4] | IC50 [5, 11] | IC50 [5, 10] | IC50 [5, 12] | IC50 [5, 13] | IC50 [5, 14] | IC50 [5, 15] | Human (serum/blood/plasma) concentration [6] | also measured
CNC(C)C(=O)c1cccc(C)c1 (stereo not drawn) [3-MMCinternet] | > 1000 µM | > 1000 µM | 57 µM | – | – | – | – | – | – | – | – | – | –
CCNC(C)C(=O)c1ccc(C)cc1 (stereo not drawn) [4-MECinternet] | > 1000 µM | > 1000 µM | 79 µM | – | – | – | – | – | – | – | – | – | IC50 (hDAT [2]; HEK 293 cells, 37°C, uptake at 12 min after drug exposure, value [CI], read-out: Transporter inhibition IC50, hDAT): 1.7 µM; IC50 [1, 11]: 79 µM; IC50 [1, 12]: 70 µM
CNC(C)Cc1ccc2c(c1)OCO2 (stereo not drawn) [MDMA, 3,4-methylenedioxymethamphetamine] | – | – | – | – | – | – | – | – | – | – | – | – | Increase in potency to inhibit hSERT (hSERT): threefold
CNC(C)C(=O)c1ccc2c(c1)OCO2 (stereo not drawn) [Methylone, 1-(1,3-benzodioxol-5-yl)-2-(methylamino)propan-1-one] | – | – | – | 1.4–4.5^5,^–6,^7 | 0.01 to 81 µM | 266 µM | 323 µM | 244 µM | > 1000 µM | > 1000 µM | > 1000 µM | 0.01–18^a,d,g,h μM | IC50 (hDAT [2]): 2 µM; IC50 (hNET): 1.7 µM; Reduction of potency to inhibit neuronal activity compared to MDMA ([5]; methylone versus MDMA, ref Zwartsen et al.): threefold; IC50 ([5]; prolonged exposure 4.5 h, read-out: Neuronal activity IC50, mean burst rate (MBR), prolonged): 322 µM; IC50 ([5]; prolonged exposure 4.5 h, read-out: Neuronal activity IC50, mean network burst rate (MNBR), prolonged): 362 µM; IC50 ([5]; prolonged exposure 4.5 h, read-out: Neuronal activity IC50, mean spike rate (MSR), prolonged): 283 µM
CCCC(C(=O)c1ccccc1)N1CCCC1 (stereo not drawn) [α-PVP, α-pyrrolidinovalerophenone] | – | – | – | 0.1–1.8^4,8,9,10 | 0.001 to 5.0 µM | 33 µM | 33 µM | 26 µM | > 300 µM | > 300 µM | > 300 µM | 0.01–2.8^b,j,K μM | Increased potency to inhibit neuronal activity (MSR, MBR, and MNBR) compared to cathinones lacking the lengthened alkyl chain ([1]; acute and prolonged exposure): two to fourfold; IC50 (hDAT [7]): 0.2 µM

From paper PMC7000521, “Hazard Characterization of Synthetic Cathinones Using Viability, Monoamine Reuptake, and Neuronal Activity Assays” (Frontiers in Neuroscience, 2020)
